What is called melting point is the temperature, or range, at which the solid turns liquid.

`Cc1ccccc1C(=O)Nc1ccc(C(=O)N2CCCC(O)(CO)c3ccccc32)cc1` (stereo not drawn): the melting point was in the range of 136 to 140 °C. The molecule `COC(=O)NNC(=O)CCC1CCCCC1` had a melting point of 113 °C. To `O=C(Nc1cccc(Cl)c1)ONC1=Nc2ccc([N+](=O)[O-])cc2C(c2ccccc2)=NC1` belongs 123 to 125 °C; to `N=C(N)c1ccc(N2CCN(c3ccc(S(=O)(=O)CC(=O)O)cc3)C2=O)cc1`, greater than 260 °C; to `Cc1ccc(-c2nc3cc([N+](=O)[O-])ccc3o2)o1`, 182 to 184 °C.

On to `CCOC(=O)c1cccc2[nH]c3c(C)ccc(C)c3c12`, for which the melting point turned out to be 149 °C. To `O=C(O)CCCCCCc1cn(-c2cccnc2)c2ccccc12` belongs 120 to 122 °C; to `O=C(Nc1ccc2oc3c(c2c1)CCCC3)C12CC3CC(CC(C3)C1)C2`, 247 to 248 °C; to `CCOc1ccc(C2=NNC(=O)[C@H]3CC=CC[C@@H]23)cc1OCC` (relative stereo), 145 to 147 °C.

In the case of `Cc1noc(C2CN3CCC2CC3)n1` (stereo not drawn), the melting point was in the range of 112 to 115 °C. `O[C@@H]1CN(CCNc2ncccn2)CC[C@H]1NCc1ccccc1` (relative stereo) displayed a melting point of 127 °C. Next, `Fc1ccc(OC(CN2CCN(c3ccccc3)CC2)c2ccccc2)cc1` (stereo not drawn): 80 to 82 °C; `O=C1NC(=O)C(Cc2c[nH]c3ccc(Cl)cc23)N1` (stereo not drawn): 226 to 228 °C. `CC(C)[C@H](NS(=O)(=O)c1ccc2c(c1)Sc1ccccc1O2)C(=O)O` came in with a melting point of 171 to 175 °C. To `CN(C)S(=O)(=O)c1cccc2c1Sc1ccc(OCc3ccccc3)cc1N2CCCCl` belongs 124 to 126 °C; to `CCC(OC(C)=O)c1ccc(C(OC(C)=O)C(C)(C)C)cc1` (stereo not drawn), 64 to 65 °C. The molecule `O=C1c2c(cc(O)c(Cl)c2Cl)CC1(c1ccccc1)C1CCCC1` (stereo not drawn) yielded a melting point of 161 to 170 °C.

`CC(C)CN1C(=O)C2CC2(c2ccc(N)cc2)C1=O` (stereo not drawn): the melting point was 100 to 101 °C. Next, `CCCCC1(CCCC)c2cc(Br)ccc2-c2ccc(Br)cc21`: 117 to 118 °C; `CC(C)(C)Nc1cc(N2CCCNCC2)nc(NC(C)(C)C)n1`: 127 to 132 °C.

In turn, `CCCc1nn(C)c2c(=O)[nH]c(-c3cc([N+](=O)[O-])cnc3OC3CCC3)nc12` registered a melting point of 212 to 214 °C. To `CNc1sc(Cl)cc1C(=O)c1ccccc1F` belongs 93 to 94 °C; to `CC(C)=CCOc1ccc2c(C)cc(=O)oc2c1C(=O)C=Cc1ccccc1`, 114 to 116 °C; to `O=C1N[C@H](C(=O)NCCO[N+](=O)[O-])CO1`, 102 to 103 °C. Next, `Cc1cc(-n2ccnc2)c2cccc(OCc3c(Cl)ccc(S(=O)(=O)N4CCOCC4)c3Cl)c2n1`: 148 °C.

In turn, `CN(C)C1CCN(S(=O)(=O)c2cc(C#N)ccc2Sc2cc(Cl)ccc2Cl)CC1` displayed a melting point of 140 to 143 °C.

Turning to `O=C(O)C1(C(F)(F)F)NNC2=C1CCCC2` (stereo not drawn), the melting point fell in the range of 183 to 184 °C. `Cc1cccc(N2CCN(CCc3nc4cc(Br)c5ccccc5c4n3C)CC2)c1` came in with a melting point of 155 to 157 °C.

On to `COc1cc(Nc2nccc(-c3sc(N4C=CC=NC4)nc3C)n2)ccc1N1CCOCC1`, for which the melting point lay within 212 to 214 °C. Next, `CCOC(=O)c1nc2cc(C)sc2nc1N`: 121 to 123 °C; `N#Cc1ccc(-c2ccc(-c3nc4cc(C#N)ccc4[nH]3)cc2)c(OCc2ccccc2)c1`: 205 to 208 °C.

As for `COc1ccc2cc(O)c(C(=O)Nc3ccccc3)cc2c1`, the melting point came out at 230 °C. As to `CCOC(=O)c1c(CN(CC)CC)nc2cc(OC)c(OC)cc2c1-c1ccc(OC)cc1`, the melting point lay in the range of 118 to 119 °C.

Take `CC[C@H](C)[C@H](N)C(=O)N(CC(C)C)C(=O)[C@@H]1CCCN1CC(=O)[C@H](Cc1ccccc1)NC(=O)OCc1ccccc1`: the melting point lay in the range of 80 to 81 °C. Next, `CCOC(=O)Cc1ccc(NC(=O)C(COS(C)(=O)=O)NS(=O)(=O)c2ccc(Br)cc2)cc1` (racemic): 155 to 156 °C; `N#CC1=C(C2CCNCC2)Nc2n[nH]cc2C1c1ccccc1Cl` (stereo not drawn): 221 °C. To `O=C1CCC2(CC1)CC(=O)NC2=O` belongs 154 °C; to `CCOCCc1ccc(OCCNc2ncnc3scc(C)c23)c(C)c1`, 55 to 57 °C; to `Fc1ccc2nc(S)oc2c1`, 248 to 250 °C.

`CCCNC(=O)C(C)Cc1ccc2c(c1)c(Cc1ccc(C(=O)NS(=O)(=O)c3ccccc3C)cc1OC)cn2C(C)C` (stereo not drawn) displayed a melting point of 182 to 184 °C. To `O=[N+]([O-])c1ccc(C2CCN(c3ccncc3)CC2)cc1` belongs 173 to 174 °C. For `O=C(O)c1ccc2c(c1)nc(-c1ccc(Oc3cccc(-c4cccc(Cl)c4)c3)cc1)n2C1CCCCC1`, the melting point was in the range of 253 to 254 °C.

Take `O=C1N(Cc2ccc(Cl)cc2)c2ccccc2C1(O)c1cccs1` (stereo not drawn): the melting point lay in the range of 140 to 143 °C.

The molecule `Cn1cc(-c2cc(-c3cccnc3)ccn2)n(-c2ccc(C(C)(C)C#N)cc2)c1=O` gave a melting point of 180 °C. To `O=C1CCc2cc(-c3ccccc3)ccc21` belongs 75 °C. For `O=c1cc(Cl)cnn1CC1CCCCC1`, the melting point fell in the range of 81.6 to 81.8 °C. `CCCCCS(=O)(=O)NC(=O)/C=C/c1cc(OCCCC)nn1Cc1ccc(C(F)(F)F)cc1Cl` showed a melting point of 130 to 132 °C. `O=C(O)C1Cc2cccc(-c3ccccc3)c2C1` (stereo not drawn) returned a melting point of 97 to 102 °C. To `CCOCc1nc2c(N)nc3ccccc3c2n1CCCC1(C)OCCO1` belongs 150 to 152 °C; to `COCc1c(C(=O)OC(C)C)ncc2[nH]c3cccc(Oc4ccc([N+](=O)[O-])cc4)c3c12`, 217 to 219 °C.

Regarding `Oc1ccc(-c2cc3ccccc3cn2)cc1`, the melting point lay within 218 to 219 °C.

For the molecule `O=C(ON1C(=O)CCC1=O)c1ccc(-c2ccc(S(=O)(=O)N(CCO)CCO)cc2)[nH]c1=O`, the melting point lay in the range of 213 to 216 °C. To `CN1C(=O)c2[nH]c3ccccc3c2Oc2ccccc21` belongs 247 to 248 °C; to `CSc1ccc(-c2cc(C(C)C)nc(N)n2)c2ccccc12`, 139 to 140 °C; to `CC1C(=O)N(c2ccc(S(C)(=O)=O)cc2)N=C1N` (stereo not drawn), 239 to 240 °C.

As for `CCCC1(C(=O)O)CCCCC1`, the melting point is 58 to 59 °C. Next, `COc1ccc(C(=O)NCC(=O)N2c3ccccc3N(Cc3ccccc3)C(=O)[C@H]3CCC[C@H]32)cc1` (relative stereo): 160 to 161 °C; `C=CCC(C)(C)C(NC(=O)c1ccc(Cl)cc1)Nc1c(Nc2cccnc2)c(=O)c1=O` (stereo not drawn): 242 to 243 °C; `CC(=O)N1CCc2ccc(NS(=O)(=O)c3ccccc3)cc2C1`: 180 to 182 °C.

`O=C(O)CC1(CC(O)=NO)CCCCCC1` gave a melting point of 90 to 100 °C. To `CCCCOc1ccc(NS(=O)(=O)c2ccc(N3CCNC3=O)cc2)cc1` belongs 223 to 225 °C; to `COC1=C(OC)C(=O)C(CCCCCCCCCCCCCCCCCCCCCC(=O)O)=C(C)C1=O`, 86 to 87 °C; to `O=[N+]([O-])c1ccc(CN2CCCCc3ncccc32)cc1`, 231 to 233 °C. Next, `ON=C1CCC(C2CCCC2)=C1c1ccc(F)cc1`: 204 to 205 °C. Next, `CCOC1CC2(C)C(CCC3C4CCCC4(C)CC(N(C)C)C32)CC1O` (stereo not drawn): 54 to 59 °C. `O=c1[nH]c2cc(OCC(O)CN3CCOCC3)ccc2c2oc3ccccc3c12` (stereo not drawn) had a melting point of 228 to 230 °C.

`COc1ccc2c(c1)CCC1=C2CCCN1C(C)=O` had a melting point of 119 to 120 °C. Next, `COc1cc(C(C)C)c2c(c1)S(=O)(=O)N(COc1cc(C#N)nn1-c1ccc(Cl)cc1)C2=O`: 135 °C; `N#Cc1nn(-c2c(Cl)cc(C(F)(F)F)cc2Cl)c(N)c1C=NO`: 175 to 178 °C; `O=C(O)CCCN1C(=O)c2cccc([N+](=O)[O-])c2C1=O`: 144 to 146 °C. Next, `N#Cc1ccc(NCC(F)(F)F)cc1C(F)(F)F`: 132 to 134 °C; `CCCCn1c(=O)c2cn(S(=O)(=O)CCCCl)nc2n(CCCC)c1=O`: 102 to 103 °C. To `CCCCCNc1nc(NCC(C)C)c2ncn(CC(=O)O)c2n1` belongs 139 to 148 °C; to `C[C@H](O)[C@@H](O)[C@@H](O)C(=O)CO`, 158 to 160 °C.

Consider `Nc1ccc(-c2nc(-c3ccco3)no2)cc1`, for which the melting point lay within 183 to 185 °C.

With `CC(C)C(C)(C)C(=O)C(Cc1ccc(Cl)cc1)n1cncn1` (stereo not drawn), the melting point was in the range of 91 to 94 °C. Next, `CN1CCN(C2=Nc3cc(Cl)ccc3Oc3cscc32)CC1`: 180 to 182 °C; `NCCNc1cnnc(N)n1`: 186 to 191 °C; `COCc1ncccc1CN(CCn1ccc2oc(C)cc2c1=O)Cc1ccc2c(c1)NC(=O)C(C)(C)C(=O)N2CC1CC1`: 189 to 191 °C. Regarding `COC(=O)CCC(=O)c1ccc(-c2ccc(Br)cc2)cc1`, the melting point lay within 115 to 116 °C. To `Cc1cc(=O)c(-c2ccc(Cl)cc2)c(C)n1C` belongs 221 to 222 °C; to `CCCCc1nn(-c2ccccc2C(F)(F)F)c(=O)n1Cc1ccc(-c2ccccc2S(=O)(=O)Nc2ccc([N+](=O)[O-])cc2)cc1`, 186 to 187 °C. To `O=C(O)c1cccc(OCc2cc(Cl)cc(Cl)c2)c1OCc1cc(Cl)cc(Cl)c1` belongs 150 to 151 °C; to `N#Cc1cc(-c2nc3ccccc3s2)ccc1N`, 207 to 211 °C; to `O=C1NCCN1c1ccc(S(=O)(=O)Nc2ccc(F)c(F)c2)cc1`, 225 to 226 °C. Next, `O=C1CC2(c3ccccc3)CCCC=C2C(=O)N1CC1CCCCC1` (stereo not drawn): 111 to 113 °C. As to `O=C(CN1C(=O)c2ccccc2C1=O)Nc1ccccc1C(=O)N1CCCc2ccccc21`, the melting point is 130 °C. Next, `O=C(Nc1ccc2[nH]nnc2c1)N1CCN(c2nc(-c3ccccc3)ns2)CC1`: 271 to 272 °C.

The record behind these values is a melting point compilation (Tetko et al.; mined from patent text by program, amines drawn as free bases though some values may be those of a salt).
